Results from US20240335548A1, “MACROMOLECULES” (Starpharma Pty Ltd, priority 2011, published 2024).
pIC50: −log10 of the molar value. Read-outs that look alike come from different tables or passages of the source.

Tests used:
A2058 (Melanoma) = assay: Cell growth inhibition SRB assay; format: cell-based
Protocol: (§1) All solutions were prepared in saline (except docetaxel which was made in ethanol). All solutions were stored at −20° C. All values were based on the equivalent drug loading.

A549 (Lung) = assay: Cell growth inhibition SRB assay; format: cell-based
Protocol: as §1

DU145 (Prostate) = assay: Cell growth inhibition SRB assay; format: cell-based
Protocol: as §1

ES2 (Ovarian) = assay: Cell growth inhibition SRB assay; format: cell-based
Protocol: as §1

H460 (Lung) = assay: Cell growth inhibition SRB assay; format: cell-based
Protocol: as §1

HCT116 (Colon) = assay: Cell growth inhibition SRB assay; format: cell-based
Protocol: as §1

HT29 (Colon) = assay: Cell growth inhibition SRB assay; format: cell-based
Protocol: as §1

MCAS (Ovarian) = assay: Cell growth inhibition SRB assay; format: cell-based
Protocol: as §1

MDA-MB-231 (Breast) = assay: Cell growth inhibition SRB assay; format: cell-based
Protocol: as §1

PC-3 (Prostate) = assay: Cell growth inhibition SRB assay; format: cell-based
Protocol: as §1

[1] = Water solubility study on drug loaded dendrimers; format: physicochemical
Protocol: Protocol: To 30 mg of dendrimer (freeze-dried from water) was added 100 μL of deionised water. After mixing for 10 minutes, additional aliquots of water (10-30 μL per addition) were added with vortexing and incubation for 10 mins until full dissolution was obtained. This amount is represented in Table 1 as the water solubility of the dendrimer. The equivalent drug solubility is determined by multiplying the % drug loading/100 and is represented in Table 1 (column 3) as Equivalent drug solubility on dendrimer. Finally, the fold increase is obtained by dividing the Equivalent drug solubility on dendrimer by the solubility of the drug and is represented in Table 1 (column 4).

[2] = Plasma stability study: docetaxel release in mouse plasma; format: in vitro ADME; details: 37° C.
Protocol: Protocol: To 0.5 mL of mouse plasma was added 0.1 mL of dendrimer solution (2 mg/mL, drug equivalent in saline). The mixtures were vortexed (30 s) then incubated at 37° C. At various timepoints (0.5, 2.5, 4.5, 22 hours) 0.1 mL aliquots were removed and added to 0.2 mL ACN. The resulting mixtures were vortexed (30 s), centrifuged (10 min, 4° C.) filtered and analysed by HPLC (C8, 3.9×150 mm, 5 μm, wavelength=243 nm, 10 μL injections, gradient: 40-80% ACN/H2O (1-7 min), 80% ACN (7-9 min), 80-40% ACN (9-11 min), 40% ACN (11-15 min), 10 mM ammonium formate, pH 7.40) which when compared against a standard (2 mg//mL) provided the concentration of free docetaxel in the sample.

[3] = day 16, one day after final dose
Protocol: The 20 mice were randomised into 5 groups of four mice (mean tumour volume ˜90 mm^3). Animals were eye bled in the morning for baseline blood cell counts and then drug dosing commenced later that day (day 1). […] A second eye bleed was performed on day 11 (Table 7 A-C). Mice were killed one day following the final drug dose (day 16).

A2780 = assay: IC50 using the MTT assay; format: cell-based; details: 72 hours
Protocol: (§2) The IC50 using the MTT assay [Wilson, Anne P. (2000). “Chapter 7: Cytotoxicity and viability”. In Masters, John R. W. Animal Cell Culture: A Practical Approach. Vol. 1 (3rd ed.). Oxford: Oxford University Press] was determined against various cancer cell lines after 72 hours.

A549 = assay: IC50 using the MTT assay; format: cell-based; details: 72 hours
Protocol: as §2

DU-145 = assay: IC50 using the MTT assay; format: cell-based; details: 72 hours
Protocol: as §2

H460 = assay: IC50 using the MTT assay; format: cell-based; details: 72 hours
Protocol: as §2

HCT-116 = assay: IC50 using the MTT assay; format: cell-based; details: 72 hours
Protocol: as §2

HT-29 = assay: IC50 using the MTT assay; format: cell-based; details: 72 hours
Protocol: as §2

MCF-7 = assay: IC50 using the MTT assay; format: cell-based; details: 72 hours
Protocol: as §2

PC-3 = assay: IC50 using the MTT assay; format: cell-based; details: 72 hours
Protocol: as §2

[4] = A2058, 72 hours, equivalent drug loading, average of duplicate
[5] = A549, 72 hours, equivalent drug loading, average of duplicate
[6] = DU145, 72 hours, equivalent drug loading, average of duplicate
[7] = ES2, 72 hours, equivalent drug loading, average of duplicate
[8] = H460, 72 hours, equivalent drug loading, average of duplicate
[9] = HCT116, 72 hours, equivalent drug loading, average of duplicate
[10] = HT29, 72 hours, equivalent drug loading, average of duplicate
[11] = MCAS, 72 hours, equivalent drug loading, average of duplicate
[12] = MDA-MB-231, 72 hours, equivalent drug loading, average of duplicate
[13] = PC-3, 72 hours, equivalent drug loading, average of duplicate
[14] = deionised water, until full dissolution
[15] = water solubility x % drug loading/100

**Q.** Which GI50 (A2058 (Melanoma); [4]) does the source give for “BHALys[Lys]32[α-4-HSBA-4Aba-DTX]32[ε-PEG1100]32 [1 (b)]” here?
**A.** 0.0095 µM

**Q.** What about the GI50 (A549 (Lung); [5]) of the same substance?
**A.** 0.013 µM

**Q.** What about the GI50 (DU145 (Prostate); [6]) of the same substance?
**A.** 0.0115 µM

**Q.** What about the GI50 (ES2 (Ovarian); [7]) of the same substance?
**A.** 0.0165 µM

**Q.** What about the GI50 (H460 (Lung); [8]) of the same substance?
**A.** 0.013 µM

**Q.** What about the GI50 (HCT116 (Colon); [9]) of the same substance?
**A.** 0.0085 µM

**Q.** What about the GI50 (HT29 (Colon); [10]) of the same substance?
**A.** 0.0125 µM

**Q.** What about the GI50 (MCAS (Ovarian); [11]) of the same substance?
**A.** 0.029 µM

**Q.** What about the GI50 (MDA-MB-231 (Breast); [12]) of the same substance?
**A.** 0.0115 µM

**Q.** And the GI50 (PC-3 (Prostate); [13])?
**A.** 0.017 µM

**Q.** With “BHALys[Lys]32[α-4-HSBA-Cp-DTX]32[ε-PEG1100]32 [Example 4 (c)]” as the substance, how does the “Water solubility of dendrimer” value [1, 14] read?
**A.** 109 mg/mL

**Q.** What about the “Equivalent drug solubility on dendrimer” value [1, 15] of the same substance?
**A.** 22 mg/mL

**Q.** What about the “Docetaxel release in plasma” value ([2]; 0.5 hours) of the same substance?
**A.** 1.5 percentage of total docetaxel

**Q.** What about the “Docetaxel release in plasma” value ([2]; 2.5 hours) of the same substance?
**A.** 10 percentage of total docetaxel

**Q.** What about the “Docetaxel release in plasma” value ([2]; 22 hours) of the same substance?
**A.** 17.5 percentage of total docetaxel

**Q.** And the GI50 (A2058 (Melanoma); [4])?
**A.** 0.008 µM

**Q.** And the GI50 (A549 (Lung); [5])?
**A.** 0.0085 µM

**Q.** What about the GI50 (DU145 (Prostate); [6]) of the same substance?
**A.** 0.012 µM

**Q.** What about the GI50 (ES2 (Ovarian); [7]) of the same substance?
**A.** 0.0086 µM

**Q.** What about the GI50 (H460 (Lung); [8]) of the same substance?
**A.** 0.011 µM

**Q.** And the GI50 (HCT116 (Colon); [9])?
**A.** 0.009 µM

**Q.** And the GI50 (HT29 (Colon); [10])?
**A.** 0.0095 µM

**Q.** And the GI50 (MCAS (Ovarian); [11])?
**A.** 0.02 µM

**Q.** And the GI50 (MDA-MB-231 (Breast); [12])?
**A.** 0.0065 µM

**Q.** And the GI50 (PC-3 (Prostate); [13])?
**A.** 0.0215 µM

**Q.** What about the “Mean Tumour Weights (g) (sd)” value [3] of the same substance?
**A.** 0.079 g

**Q.** Which “Equivalent drug solubility on dendrimer” value [1] does the source give for “BHALys[Lys]32[α-DGA-Testosterone]32[ε-PEG570]32 [Example 21]” here?
**A.** 14.8 mg/mL

**Q.** What about the “Fold increase in drug solubility” value [1] of the same substance?
**A.** 618

**Q.** What about the “Water solubility of dendrimer” value [1] of the same substance?
**A.** >81 mg/mL

**Q.** Which “Equivalent drug solubility on dendrimer” value [1] does the source give for “BHALys[Lys]32[α-DGA-Testosterone]32[ε-PEG1100]32 [20 (b)]” here?
**A.** 11.5 mg/mL

**Q.** And the “Fold increase in drug solubility” value [1]?
**A.** 482

**Q.** And the “Water solubility of dendrimer” value [1]?
**A.** >75 mg/mL

**Q.** With “BHALys[Lys]32[α-GFLG-Glu-DTX]32[ε-PEG1100]32 [15 (c)]” as the substance, how does the pIC50 (A2780) read?
**A.** 7.87

**Q.** What about the pIC50 (A549) of the same substance?
**A.** 8.09

**Q.** And the pIC50 (DU-145)?
**A.** 7.53

**Q.** And the pIC50 (H460)?
**A.** 7.50

**Q.** What about the pIC50 (HCT-116) of the same substance?
**A.** 8.14

**Q.** What about the pIC50 (HT-29) of the same substance?
**A.** 8.24

**Q.** And the pIC50 (MCF-7)?
**A.** 8.08

**Q.** And the pIC50 (PC-3)?
**A.** 7.93

**Q.** With “BHALys[Lys]32[α-GGG-Glu-DTX]32[ε-PEG1100]32 [14 (c)]” as the substance, how does the pIC50 (A2780) read?
**A.** 8.34

**Q.** What about the pIC50 (A549) of the same substance?
**A.** 8.82

**Q.** And the pIC50 (DU-145)?
**A.** 8.14

**Q.** And the pIC50 (H460)?
**A.** 8.37

**Q.** And the pIC50 (HCT-116)?
**A.** 8.59

**Q.** And the pIC50 (HT-29)?
**A.** 9.30

**Q.** And the pIC50 (MCF-7)?
**A.** 9.30

**Q.** What about the pIC50 (PC-3) of the same substance?
**A.** 8.42

**Q.** With “BHALys[Lys]32[α-GILGVP-Glu-DTX]32[ε-t-PEG2300]32 [Example 17]” as the substance, how does the pIC50 (A2780) read?
**A.** 6.54

**Q.** What about the pIC50 (A549) of the same substance?
**A.** 6.80

**Q.** What about the pIC50 (DU-145) of the same substance?
**A.** 6.54

**Q.** And the pIC50 (H460)?
**A.** 6.22

**Q.** And the pIC50 (HCT-116)?
**A.** 6.67

**Q.** What about the pIC50 (HT-29) of the same substance?
**A.** 7.07

**Q.** What about the pIC50 (MCF-7) of the same substance?
**A.** 7.03

**Q.** What about the pIC50 (PC-3) of the same substance?
**A.** 6.45

**Q.** With “BHALys[Lys]32[α-Glu-DTX]32[ε-PEG1100]32 [5 (b)]” as the substance, how does the “Water solubility of dendrimer” value [1, 14] read?
**A.** 214 mg/mL

**Q.** What about the “Fold increase in drug solubility” value ([1]; equivalent drug solubility divided by solubility of the drug) of the same substance?
**A.** 4000

**Q.** And the “Equivalent drug solubility on dendrimer” value [1, 15]?
**A.** 75 mg/mL

**Q.** And the “Docetaxel release in plasma” value ([2]; 0.5 hours)?
**A.** 0 percentage of total docetaxel

**Q.** What about the “Docetaxel release in plasma” value ([2]; 2.5 hours) of the same substance?
**A.** 0 percentage of total docetaxel

**Q.** And the “Docetaxel release in plasma” value ([2]; 22 hours)?
**A.** 4 percentage of total docetaxel

**Q.** What about the GI50 (A2058 (Melanoma)) of the same substance?
**A.** 0.0715 µM

**Q.** What about the GI50 (A549 (Lung)) of the same substance?
**A.** 0.0565 µM

**Q.** And the GI50 (DU145 (Prostate))?
**A.** 0.148 µM

**Q.** What about the GI50 (ES2 (Ovarian)) of the same substance?
**A.** 0.116 µM

**Q.** And the GI50 (H460 (Lung))?
**A.** 0.106 µM

**Q.** What about the GI50 (HCT116 (Colon)) of the same substance?
**A.** 0.0855 µM

**Q.** And the GI50 (HT29 (Colon))?
**A.** 0.0975 µM

**Q.** What about the GI50 (MCAS (Ovarian)) of the same substance?
**A.** 0.253 µM

**Q.** What about the GI50 (MDA-MB-231 (Breast)) of the same substance?
**A.** 0.0505 µM

**Q.** What about the GI50 (PC-3 (Prostate)) of the same substance?
**A.** 0.16 µM

**Q.** Which GI50 (A2058 (Melanoma); [4]) does the source give for “BHALys[Lys]32[α-Glu-GEM]32[ε-PEG1100]32 [13 (b)]” here?
**A.** 0.101 µM

**Q.** What about the GI50 (A549 (Lung); [5]) of the same substance?
**A.** 0.073 µM

**Q.** What about the GI50 (DU145 (Prostate); [6]) of the same substance?
**A.** 0.099 µM

**Q.** And the GI50 (ES2 (Ovarian); [7])?
**A.** 0.048 µM

**Q.** And the GI50 (H460 (Lung); [8])?
**A.** 0.127 µM

**Q.** And the GI50 (HCT116 (Colon); [9])?
**A.** 0.0305 µM

**Q.** What about the GI50 (HT29 (Colon); [10]) of the same substance?
**A.** 0.117 µM

**Q.** And the GI50 (MCAS (Ovarian); [11])?
**A.** 0.117 µM

**Q.** And the GI50 (MDA-MB-231 (Breast); [12])?
**A.** 0.0505 µM

**Q.** And the GI50 (PC-3 (Prostate); [13])?
**A.** 0.288 µM
